Like-named read-outs stand apart in the source and are kept apart here.
How the values were obtained:
expanded OPCs = test: cells; details: for viability at 0.1 µM / viability at 1 µM / viability at 10 µM: Rattus norvegicus, 72 h; for 0.1 µM (% DMSO) / 1 µM (% DMSO) / 10 µM (% DMSO): alamarBlue viability of expanded OPCs; for 0.1 µM (% DMSO): compound at 0.1 µM; for 1 µM (% DMSO): compound at 1 µM; for 10 µM (% DMSO): compound at 10 µM
Summary of the method: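 Expanded OPCs seeded at 10,000 cells/well in differentiation media, then exposed to NCC library compounds at 10, 1 and 0.1 µM (quadruplicate, 0.1% DMSO) for three days. Viability read as alamarBlue fluorescence (560/590 nm) after 4 h at 37 °C; tunicamycin 5 ng/ml served as toxicity control.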

[1] = test system: acutely dissociated and purified rat OPCs; test: Acute OL differentiation assay (MBP expression/cell, immunofluorescent image quantification); assay type: cell-based; details: for activation at 0.08 µM: 0.08 uM test compound, read-out: OL differentiation, 0.08 uM (% Quet)
Summary of the method: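 Oligodendrocyte precursor cells were enriched from P6-P7 Sprague–Dawley rat brains by immunopanning (RAN-2 and GalC depletion, O4 selection), plated at 5000 cells/well in serum-free, mitogen-free differentiation media on PDL/laminin 96-well view plates, centrifuged at 200×g, and pre-incubated 1–2 h before test compounds were added in quadruplicate. On DIV4, cells were fixed, stained for MBP and DAPI, imaged automatically, and MBP expression per cell was quantified.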

[2] = read-out: 0.1 µM (% DMSO), alamarBlue viability of expanded OPCs, compound at 0.1 µM, sheet All Tox data
[3] = read-out: 1 µM (% DMSO), alamarBlue viability of expanded OPCs, compound at 1 µM, sheet All Tox data
[4] = read-out: 10 µM (% DMSO), alamarBlue viability of expanded OPCs, compound at 10 µM, sheet All Tox data
[5] = Rattus norvegicus, 2 uM test compound, relative to quetiapine, sheet "All OLga data", read-out: OL differentiation, 2 uM (% Quet)
[6] = Rattus norvegicus, 10 uM test compound, relative to quetiapine, sheet "All OLga data", read-out: OL differentiation, 10 uM (% Quet)
[7] = Rattus norvegicus, test compound at 2 uM, MBP expression relative to quetiapine, NCC library screen, sheet "All OLga data", read-out: 2 uM (% Quet)
[8] = Rattus norvegicus, test compound at 10 uM, MBP expression relative to quetiapine, NCC library screen, sheet "All OLga data", read-out: 10 uM (% Quet)
[9] = Rattus norvegicus, test compound at 0.4 uM, NCC library screen, sheet "All OLga data", relative to quetiapine, read-out: 0.4 uM (% Quet)
[10] = Rattus norvegicus, test compound at 2 uM, NCC library screen, sheet "All OLga data", relative to quetiapine, read-out: 2 uM (% Quet)
[11] = read-out: 0.1 µM (% DMSO), alamarBlue viability, NCC library compound at 0.1 µM, sheet "All Tox data"
[12] = read-out: 1 µM (% DMSO), alamarBlue viability, NCC library compound at 1 µM, sheet "All Tox data"
[13] = read-out: 10 µM (% DMSO), alamarBlue viability, NCC library compound at 10 µM, sheet "All Tox data"
[14] = Rattus norvegicus, test compound at 10 uM, NCC library screen, sheet "All OLga data", relative to quetiapine, read-out: 10 uM (% Quet)
[15] = Rattus norvegicus, relative to quetiapine, sheet "All OLga data"
[16] = Rattus norvegicus, 0.4 uM test compound, relative to quetiapine, sheet "All OLga data", read-out: OL differentiation, 0.4 uM (% Quet)

## O=C(O)Cc1ccccc1Nc1c(Cl)cccc1Cl [Diclofenac]
Expanded OPCs; [2]
  viability at 0.1 µM: 90.1%
Expanded OPCs; [3]
  viability at 1 µM: 95.5%
Expanded OPCs; [4]
  viability at 10 µM: 88.8%
[1]; [5]
  activation at 2 µM: 4.8%
[1]; [6]
  activation at 10 µM: 3.4%

## Cc1onc(-c2c(Cl)cccc2Cl)c1C(=O)N[C@@H]1C(=O)N2[C@@H]1SC(C)(C)[C@@H]2C(=O)O [Dicloxacillin]
Expanded OPCs; relative to DMSO control
  0.1 µM (% DMSO): 93.5 % DMSO
  1 µM (% DMSO): 91.4 % DMSO
  10 µM (% DMSO): 76.5 % DMSO
[1]; [7]
  activation at 2 µM: -0.7%
[1]; [8]
  activation at 10 µM: -16.9%

## CCN(CC)CCOC(=O)C1(C2CCCCC2)CCCCC1 [Dicyclomine]
Expanded OPCs; relative to DMSO control
  0.1 µM (% DMSO): 99.8 % DMSO
  1 µM (% DMSO): 87.7 % DMSO
  10 µM (% DMSO): 52.8 % DMSO
[1]; [9]
  activation at 0.4 µM: -5.5%
[1]; [10]
  activation at 2 µM: 32.1%

## O=C(O)c1cc(-c2ccc(F)cc2F)ccc1O [Diflunisal]
Expanded OPCs; relative to DMSO control
  0.1 µM (% DMSO): 94.0 % DMSO
  1 µM (% DMSO): 92.0 % DMSO
  10 µM (% DMSO): 35.0 % DMSO
[1]; [9]
  activation at 0.4 µM: 0.3%
[1]; [10]
  activation at 2 µM: 5.6%

## C[C@H]1O[C@@H](O[C@H]2[C@@H](O)C[C@H](O[C@H]3[C@@H](O)C[C@H](O[C@H]4CC[C@@]5(C)[C@H](CC[C@@H]6[C@@H]5C[C@@H](O)[C@]5(C)[C@@H](C7=CC(=O)OC7)CC[C@]65O)C4)O[C@@H]3C)O[C@@H]2C)C[C@H](O)[C@@H]1O [Digoxin]
Expanded OPCs; [11]
  viability at 0.1 µM: 103%
Expanded OPCs; [12]
  viability at 1 µM: 99.8%
Expanded OPCs; [13]
  viability at 10 µM: 106%
[1]; [10]
  activation at 2 µM: -10.3%
[1]; [14]
  activation at 10 µM: 22.8%

## COc1ccc([C@@H]2Sc3ccccc3N(CCN(C)C)C(=O)[C@@H]2OC(C)=O)cc1 [Diltiazem]
Expanded OPCs; relative to DMSO control
  0.1 µM (% DMSO): 81.4 % DMSO
  1 µM (% DMSO): 67.2 % DMSO
  10 µM (% DMSO): 48.7 % DMSO
[1]; [9]
  activation at 0.4 µM: -12.2%
[1]; [10]
  activation at 2 µM: -2.4%

## CN(C)CCOC(c1ccccc1)c1ccccc1 [Diphenhydramine]
Expanded OPCs; [2]
  viability at 0.1 µM: 79.3%
Expanded OPCs; [3]
  viability at 1 µM: 80%
Expanded OPCs; [4]
  viability at 10 µM: 62.4%
[1]; [5]
  activation at 2 µM: 3.5%
[1]; [6]
  activation at 10 µM: 30%

## CCOC(=O)C1(c2ccccc2)CCN(CCC(C#N)(c2ccccc2)c2ccccc2)CC1 [Diphenoxylate]
Expanded OPCs; [11]
  viability at 0.1 µM: 85.6%
Expanded OPCs; [12]
  viability at 1 µM: 27.7%
Expanded OPCs; [13]
  viability at 10 µM: 23.2%
[1]; [15]
  activation at 0.08 µM: -3.7%
[1]; [16]
  activation at 0.4 µM: 12%

## O=c1c(-c2ccccc2)c1-c1ccccc1 [Diphenylcyclopropenone]
Expanded OPCs; [2]
  viability at 0.1 µM: 73.9%
Expanded OPCs; [3]
  viability at 1 µM: 65%
Expanded OPCs; [4]
  viability at 10 µM: 11.7%
[1]; [16]
  activation at 0.4 µM: 8.6%

## OCCN(CCO)c1nc(N2CCCCC2)c2nc(N(CCO)CCO)nc(N3CCCCC3)c2n1 [Dipyridamole]
Expanded OPCs; relative to DMSO control
  0.1 µM (% DMSO): 107.4 % DMSO
  1 µM (% DMSO): 102.2 % DMSO
  10 µM (% DMSO): 87.5 % DMSO
[1]; [10]
  activation at 2 µM: 13.5%
[1]; [14]
  activation at 10 µM: -27.3%

## CC(C)N(CCC(C(N)=O)(c1ccccc1)c1ccccn1)C(C)C (centres unmarked) [Disopyramide]
Expanded OPCs; relative to DMSO control
  0.1 µM (% DMSO): 89.6 % DMSO
  1 µM (% DMSO): 92.1 % DMSO
  10 µM (% DMSO): 88.7 % DMSO
[1]; [7]
  activation at 2 µM: -10.1%
[1]; [8]
  activation at 10 µM: -11.2%

## O=C1c2c(O)cc(O)cc2OC(c2ccc(O)c(O)c2)C1O (centres unmarked) [Distylin]
Expanded OPCs; sheet All Tox data
  0.1 µM (% DMSO): 109.5 % DMSO
  1 µM (% DMSO): 92.1 % DMSO
  10 µM (% DMSO): 99.3 % DMSO
[1]; 2 uM test compound, relative to quetiapine, sheet "All OLga data"
  OL differentiation, 2 uM (% Quet): 7.2 % Quet
[1]; 10 uM test compound, relative to quetiapine, sheet "All OLga data"
  OL differentiation, 10 uM (% Quet): -26.1 % Quet

## CCN(CC)C(=S)SSC(=S)N(CC)CC [Disulfiram]
Expanded OPCs; [2]
  viability at 0.1 µM: 22.6%
Expanded OPCs; [3]
  viability at 1 µM: 18.1%
Expanded OPCs; [4]
  viability at 10 µM: 13.8%
[1]; [16]
  activation at 0.4 µM: -180%

## CC(=O)O[C@@]12CO[C@@H]1C[C@H](O)[C@@]1(C)C(=O)[C@H](O)C3=C(C)[C@@H](OC(=O)[C@H](O)[C@@H](NC(=O)OC(C)(C)C)c4ccccc4)C[C@@](O)([C@@H](OC(=O)c4ccccc4)[C@H]21)C3(C)C [Docetaxel]
Expanded OPCs; [2]
  viability at 0.1 µM: 39.1%
Expanded OPCs; [3]
  viability at 1 µM: 38.8%
Expanded OPCs; [4]
  viability at 10 µM: 47.6%
[1]; [15]
  activation at 0.08 µM: -94.4%
[1]; [16]
  activation at 0.4 µM: -105%

## CN(CCOc1ccc(NS(C)(=O)=O)cc1)CCc1ccc(NS(C)(=O)=O)cc1 [Dofetilide, reference compound]
Expanded OPCs; [11]
  viability at 0.1 µM: 96.1%
Expanded OPCs; [12]
  viability at 1 µM: 98%
Expanded OPCs; [13]
  viability at 10 µM: 122%
[1]; [10]
  activation at 2 µM: 19.4%
[1]; [14]
  activation at 10 µM: 31.8%
[1]; Rattus norvegicus, average EC50 for induction of OL differentiation from independent biological replicates, eight concentrations
  EC50: 14 µM
[1]; ● = confirmed hit in this paper's assay
  hit in OL differentiation assay, MRF-TMC: ●

## O=C(O[C@@H]1C[C@@H]2C[C@H]3C[C@H](C1)N2CC3=O)c1c[nH]c2ccccc12 [Dolasetron]
Expanded OPCs; [11]
  viability at 0.1 µM: 81%
Expanded OPCs; [12]
  viability at 1 µM: 81.8%
Expanded OPCs; [13]
  viability at 10 µM: 63.4%
[1]; [10]
  activation at 2 µM: 4.6%
[1]; [14]
  activation at 10 µM: 18.1%

## NCCc1ccc(O)c(O)c1 [Dopamine]
Expanded OPCs; [11]
  viability at 0.1 µM: 87%
Expanded OPCs; [12]
  viability at 1 µM: 74.7%
Expanded OPCs; [13]
  viability at 10 µM: 51.7%
[1]; [9]
  activation at 0.4 µM: 3.4%
[1]; [10]
  activation at 2 µM: -24.9%

## CCN1CC(CCN2CCOCC2)C(c2ccccc2)(c2ccccc2)C1=O (centres unmarked) [Doxapram]
Expanded OPCs; [11]
  viability at 0.1 µM: 89%
Expanded OPCs; [12]
  viability at 1 µM: 89.2%
Expanded OPCs; [13]
  viability at 10 µM: 79.9%
[1]; [10]
  activation at 2 µM: -8.9%
[1]; [14]
  activation at 10 µM: 14.8%

## COc1cc2nc(N3CCN(C(=O)C4COc5ccccc5O4)CC3)nc(N)c2cc1OC (centres unmarked) [Doxazosin]
Expanded OPCs; relative to DMSO control
  0.1 µM (% DMSO): 140.5 % DMSO
  1 µM (% DMSO): 157.6 % DMSO
  10 µM (% DMSO): 18.9 % DMSO
[1]; Rattus norvegicus, test compound at 0.4 uM, MBP expression relative to quetiapine, NCC library screen, sheet "All OLga data", read-out: 0.4 uM (% Quet)
  activation at 0.4 µM: 2%
[1]; [7]
  activation at 2 µM: -27.2%

## CN(C)CCC=C1c2ccccc2COc2ccccc21 [Doxepin]
Expanded OPCs; [2]
  viability at 0.1 µM: 81.5%
Expanded OPCs; [3]
  viability at 1 µM: 85%
Expanded OPCs; [4]
  viability at 10 µM: 64.4%
Expanded OPCs; relative to DMSO control
  0.1 µM (% DMSO): 109.3 % DMSO
  1 µM (% DMSO): 91.6 % DMSO
  10 µM (% DMSO): 52.1 % DMSO
[1]; [5]
  activation at 2 µM: 47.3%
[1]; [6]
  activation at 10 µM: 37.1%
[1]; [9]
  activation at 0.4 µM: 2.7%
[1]; [10]
  activation at 2 µM: 36%

## C[C@H]1c2cccc(O)c2C(=O)C2=C(O)[C@]3(O)C(=O)C(C(N)=O)=C(O)[C@@H](N(C)C)[C@@H]3[C@@H](O)[C@@H]21 [Doxycycline]
Expanded OPCs; relative to DMSO control
  0.1 µM (% DMSO): 95.2 % DMSO
  1 µM (% DMSO): 91.4 % DMSO
  10 µM (% DMSO): 82.8 % DMSO
[1]; [7]
  activation at 2 µM: 4.2%
[1]; [8]
  activation at 10 µM: -18.6%
